Laboratory results published in US4585795A, “Control agent for protecting timber against fungi employing a mixture of an organic carboxylic acid salt and quaternary ammonium salt” (priority 1982, dated 1986).
In brackets after ≈: the same amount, converted by molar mass. Several values for one entry are separate records, joined by “and”; a condition that tells them apart may be missing. Identical values can stand only once. Entries after “also recorded” stand apart in the source; their conditions may differ. Counter-ions that a name gives are not always drawn. Like-named read-outs stand apart in the source and are kept apart here.

Tests used:
Aureobasidium pullulans = assay: dish cultures, growth inhibition of A. pullulans (Czapek-Dox agar); format: cell-based; settings: 360 h
Experimental: Laboratory experiments were carried out by making (1) dish cultures with Czapek-Dox agar at a temperature of 23° C. and (2) mini-board tests at a temperature of 23° C. and a humidity of 100%. The dish cultures had been inoculated with spores of the fungus Aureobasidium pullulans. This is a known fungus causing sapstain. In the mini-board tests, the inoculation was carried out using a spore suspension which contained a mixture of the spores of sapstain fungi. The sapstain fungi used were Aureobasidium pullulans, Sclerophoma entoxylina and Ceratocystis pilifera. […]
In dish cultures with A. pullulans fungus it was observed that growth was inhibited at, for example, the following concentrations of the control agents studied within a culture period of 15 days:
Using certain mixtures of these control agents, fungus growth could be inhibited at the following concentrations, for example: […]

[1] = test system: sapstain fungi (Aureobasidium pullulans, Sclerophoma entoxylina, Ceratocystis pilifera); assay: mini-board test on timber, sapstain; settings: for Grading points, Sapstain: Example 2, 1.2% active ingredient in wetting solution, pH 8.4, fresh timber, 23° C., 1 month, 0-5 very good, 6-10 average, 11-15 poor, 16-20 very poor; for synergism with Na-2-ethylhexanoate (in words): examples 2, 5, 6 and 12
Experimental: (§1) Laboratory experiments were carried out by making (1) dish cultures with Czapek-Dox agar at a temperature of 23° C. and (2) mini-board tests at a temperature of 23° C. and a humidity of 100%. The dish cultures had been inoculated with spores of the fungus Aureobasidium pullulans. This is a known fungus causing sapstain. In the mini-board tests, the inoculation was carried out using a spore suspension which contained a mixture of the spores of sapstain fungi. The sapstain fungi used were Aureobasidium pullulans, Sclerophoma entoxylina and Ceratocystis pilifera.
(§2) In the mini-board tests it was studied whether the toxic effect is retained on the surface of timber. The dimensions of the mini-boards were 10×50×300 mm. They had been made from newly felled pine. The pieces were immersed for 20 s into the solutions studied and were then weighed and inoculated. The control pieces were immersed into pure water. Some of the test pieces were dried for 1 month at 23° C. at a humidity of 100% in dishes covered with a plastic sheet, whereafter the sapstain and the mildew growth in them were assessed visually.
(§3) The control agent composition presented in Test 4 of Example 3 was modified in such a way that part of the dodecylbenzyldimethylammonium chloride was replaced with technical dialkyldimethylammonium chloride which contained, bound with nitrogen, C8 -C18 alkyl groups as follows: […], C10 -9%, C12 -47%, C14 -18%, C16 -8% and C18 -10%.

surface mildew = assay: mini-board test on timber, surface mildew; settings: Example 2; 1.2% active ingredient in wetting solution, pH 8.4, fresh timber, 23° C., 1 month; 0-5 very good, 6-10 average, 11-15 poor, 16-20 very poor
Experimental: as §1, §2, §3

sapstain fungi [2] = assay: miniboard test, sapstain (Examples 8-12); settings: for Growth of fungi, Sapstain (score): Example 12, pH 10
Experimental: as §1
(§4) The other half of the miniboards was dipped into the control agent solutions for 20 seconds. […] The pH was 8.5-10.0. The board were allowed to drip and they were inoculated with the above mentioned spore suspensions of sapstain and mold fungi. The boards were stored at 100% relative humidity (R.H.) at 20° C. They were inspected and visually rated after 3 weeks incubation time.
(§5) 1--some traces of fungal growth
(§6) 2--several colonies of growing fungi
(§7) 3--25% of the surface discoloured
(§8) 4--50% of the surface discoloured
(§9) The miniboards were inspected and rated after 3 weeks incubation time at 20° C. and 100% R.H. Results are presented in tables 3 and 4 as the average score of ten replicate samples.
(§10) Results are presented in tables 5-7 as the average score of ten replicate samples.
(§11) The miniboards were treated as in foregoing examples but the treatment solution contained dioctyldimethylammonium chloride instead of trimethylcocoammonium chloride.

mold fungi [3] = assay: miniboard test, molds (surface mildew) (Examples 8-12); settings: for Growth of fungi, Freshly cut pine sapwood, Molds (score): average of ten replicates; for Growth of fungi, Molds (score): Example 12, pH 10; for synergism with trimethylcoco ammonium chloride (in words): mold tests, Examples 8-11
Experimental: (§12) Cladosporium sphaerospermum
as §4, §5, §6, §7, §8, §9, §10, §11

[4] = known organic acids used as control agents; cited from earlier work
[5] = test system: sapstain fungi (Aureobasidium pullulans, Sclerophoma entoxylina, Ceratocystis pilifera); assay: mini-board one-side immersion test, sapstain (DDC / 2-EHA-Na); settings: 3 weeks, 23° C.
Experimental: as §1
[…] The immersion period was 20 s. The boards were allowed to drip, and they were inoculated with the above-mentioned spore suspension of sapstain fungi.

[6] = test system: mildew fungi (Cladosporium sphaerospermum, Penicillum Sp., Aspergillus amstelodami); assay: mini-board one-side immersion test, mildew growth (DDC / 2-EHA-Na); settings: Example 6; dry matter of wetting solution 1.5%
Experimental: The concentration of the solution was 2.5%. The immersion period was 20 s. The boards were allowed to drip, and they were inoculated with the above-mentioned spore suspension of sapstain fungi.
The following experiment was carried out as in Example 5, but a suspension of spores of the mildew fungi listed below was used for the inoculations:
as §12

sapstain fungi [7] = assay: miniboard test, sapstain (Examples 8-12); settings: TABLE 2; […] active ingredients, pH 8.5-10.0, 5 weeks, 20° C., 100% R.H.; average of ten replicates
mold fungi [8] = assay: miniboard test, molds (surface mildew) (Examples 8-12); settings: TABLE 2; […] active ingredients, pH 8.5-10.0, 5 weeks, 20° C., 100% R.H.; average of ten replicates
[9] = pH 2.5, read-out: concentration at which growth was inhibited
[10] = pH 5, read-out: concentration at which growth was inhibited
[11] = pH 7, read-out: concentration at which growth was inhibited
[12] = TABLES 5-7, […] active ingredients, pH 8.5-10.0, rated as in examples 9-10, average of ten replicates
[13] = TABLES 5-7, […] active ingredients, pH 8.5-10.0, rated as in examples 9-10
[14] = pH 2.5, 15 days culture, single agents, read-out: concentration at which growth was inhibited
[15] = pH 5.0, 15 days culture, single agents, read-out: concentration at which growth was inhibited
[16] = pH 7.0, 15 days culture, single agents, read-out: concentration at which growth was inhibited
[17] = TABLES 3-4, […] active ingredients, pH 8.5-10.0, 3 weeks, 20° C., 100% R.H., average of ten replicates
[18] = TABLES 3-4, […] active ingredients, pH 8.5-10.0, 3 weeks, 20° C., 100% R.H.
[19] = Example 5, Test 1, dry matter of wetting solution 1.5%
[20] = Example 5, Test 2, dry matter of wetting solution […]
[21] = TABLE 1, […] active ingredients, pH 8.5-10, 3 weeks, brackets not explained

Compound: CCCCCCCCCCCC[N+](C)(C)Cc1ccccc1.[Cl-] [BAC, dodecylbenzyldimethylammonium chloride]
- MIC (Aureobasidium pullulans; [9]): 50 µg/mL
- MIC (Aureobasidium pullulans; [10]): 10 µg/mL
- MIC (Aureobasidium pullulans; [11]): 2 µg/mL
- Grading points, Sapstain [1]: 2 points and 1.5 points
- synergism with Na-2-ethylhexanoate (in words) [1]: proved
- Grading points, Surface mildew (surface mildew): 8.5 points and 4.5 points

Compound: O=C(O)c1ccccc1 [Benzoic acid]
- MIC (Aureobasidium pullulans; [9]): 50 µg/mL (≈ 409 µM)
- MIC (Aureobasidium pullulans; [10]): > 100 µg/mL
- MIC (Aureobasidium pullulans; [11]): > 100 µg/mL

Compound: CCCCCCCC(=O)O [Na-caprylate]
- Growth of fungi, Freshly cut pine sapwood, Sapstain (score) (sapstain fungi [2]; [12]): 10.5
- Growth of fungi, Freshly cut pine sapwood, Molds (score) (mold fungi [3]; [13]): 20

Compound: C/C=C/C=C/C(=O)O [Sorbic acid]
- MIC (Aureobasidium pullulans; [14]): 50 µg/mL (≈ 446 µM)
- MIC (Aureobasidium pullulans; [15]): 100 µg/mL (≈ 892 µM)
- MIC (Aureobasidium pullulans; [16]): > 100 µg/mL
- pKa [4]: 4.77

Compound: CCCCCCCCCC(=O)O [Na-caprinoate]
- Growth of fungi, Freshly cut pine sapwood, Sapstain (score) (sapstain fungi [2]; [12]): 2.5
- Growth of fungi, Freshly cut pine sapwood, Molds (score) (mold fungi [3]; [13]): 20

Compound: CCCCCCC(=O)O [Na-heptanoate]
- Growth of fungi, Freshly cut pine sapwood, Sapstain (score) (sapstain fungi [2]; [12]): 7
- Growth of fungi, Freshly cut pine sapwood, Molds (score) (mold fungi [3]; [13]): 20

Compound: CCCCC(CC)C(=O)O (stereo not shown) [2-ethyl hexanoic acid]
- MIC (Aureobasidium pullulans; [9]): 50 µg/mL (≈ 347 µM)
- MIC (Aureobasidium pullulans; [10]): > 100 µg/mL
- MIC (Aureobasidium pullulans; [11]): > 1000 µg/mL
- pKa [4]: 4.81

Compound: CCCCCC(=O)O [Capronic acid]
- pKa [4]: 4.83

Compound: CCCCCCCCCCCC[n+]1ccccc1 [DPC, dodecylpyridinium chloride]
- Grading points, Sapstain [1]: 3 points
- Grading points, Surface mildew (surface mildew): 16 points

Compound: CC(=O)Oc1ccccc1C(=O)O [Acetylsalicylic acid]
- MIC (Aureobasidium pullulans; [9]): 25 µg/mL (≈ 139 µM)
- MIC (Aureobasidium pullulans; [10]): > 100 µg/mL
- MIC (Aureobasidium pullulans; [11]): > 1000 µg/mL

Compound: CCCCCCCC[N+](C)(C)CCCCCCCC.[Cl-] [Dioctyldimethylammonium chloride, dioctyldimethylammonium chloride]
- synergism with Na-2-ethylhexanoate (in words) [1]: proved
- Growth of fungi, Sapstain (score) (sapstain fungi [2]; […] active ingredients): 1
- Growth of fungi, Molds (score) (mold fungi [3]; […] active ingredients): 1.5

Compound: CCCCCCCCCCCC[N+](C)(C)C.[Cl-] [DMC, dodecyltrimethylammonium chloride]
- MIC (Aureobasidium pullulans; [9]): 15 µg/mL
- MIC (Aureobasidium pullulans; [10]): 15 µg/mL
- MIC (Aureobasidium pullulans; [11]): 4 µg/mL
- Grading points, Sapstain [1]: 1 points

Compound: Na-isononanoate
- Growth of fungi, Freshly cut pine sapwood, Sapstain (score) (sapstain fungi [2]; [17]): 20
- Growth of fungi, Freshly cut pine sapwood, Molds (score) (mold fungi [3]; [18]): 20
- synergism with trimethylcoco ammonium chloride (in words) (mold fungi [3]): quite obvious; also recorded: most obvious

Compound: CCCCCCCCCC(=O)O [Capric acid]
- MIC (Aureobasidium pullulans; [14]): 50 µg/mL (≈ 290 µM)
- MIC (Aureobasidium pullulans; [15]): 100 µg/mL (≈ 580 µM)
- MIC (Aureobasidium pullulans; [16]): > 100 µg/mL
- Grading points, Sapstain [1]: 3.5 points
- Grading points, Surface mildew (surface mildew): 14 points

Compound: Na-iso-octanoate
- Growth of fungi, Freshly cut pine sapwood, Sapstain (score) (sapstain fungi [2]; [17]): 20
- Growth of fungi, Freshly cut pine sapwood, Molds (score) (mold fungi [3]; [18]): 20
- synergism with trimethylcoco ammonium chloride (in words) (mold fungi [3]): not as clear

Compound: CCCCC(CC)C(=O)O (stereo not shown) [Na--2-ethylhexanoate, Na salt of 2-ethyl hexanoic acid]
- Grade points, Sapstain, Treated side [5, 19]: 20 points
- Grade points, Sapstain, Treated side [5, 20]: 16 points
- Grade points, Mildew growth, Treated side [6]: 20 points
- Growth of fungi, Sapstain (score) (sapstain fungi [2]; […] active ingredients): 10
- Growth of fungi, Freshly cut pine sapwood, Sapstain (score) (sapstain fungi [2]; TABLE 1, […] active ingredients, pH 8.5-10, 3 weeks, 20° C., 100% R.H., average of 5 replicates, value without brackets): 20
- Growth of fungi, Freshly cut pine sapwood, Sapstain (score), value in square brackets (sapstain fungi [2]; [21]): 2
- control of sapstain (in words) (sapstain fungi [2]; […] a.i. solution): quite ineffective in controlling mold and stain fungi
- Growth of fungi, Molds (score) (mold fungi [3]; […] active ingredients): 10
- Growth of fungi, Freshly cut pine sapwood, Molds (surface mildew) (score), value in square brackets (mold fungi [3]; [21]): 2
- control of mold growth (in words) (mold fungi [3]; […] a.i. solution): quite ineffective in controlling mold and stain fungi
- synergism with trimethylcoco ammonium chloride (in words) (mold fungi [3]): most obvious
- Growth of fungi, Freshly cut pine sapwood, Sapstain (score) (sapstain fungi [7]): 20
- Growth of fungi, Freshly cut pine sapwood, Molds (surface mildew) (score) (mold fungi [8]): 20

Compound: CCCCCCCCCC[N+](C)(C)CCCCCCCCCC.[Cl-] [DDC, didecyldimethylammonium chloride]
- synergism with Na-2-ethylhexanoate (in words) [1]: proved
- Grade points, Sapstain, Treated side [5, 19]: 12 points
- Grade points, Sapstain, Treated side [5, 20]: 5 points
- Grade points, Mildew growth, Treated side [6]: 11 points
